Measurements from patent US20070010402A1, “Novel herbicides, usage thereof, novel thienopyrimidine derivatives, intermediates of the same, and process for production thereof” (NIHON NOHYAKU CO., LTD.,, priority 2002, published 2007).

Assays:
Assay in all cases: Submerged foliar treatment test (Test Example 3)
Assay type in all cases: in vivo
Conditions in all cases: water depth 3 cm, cotyledon to 1-leaf stage, wettable powder, active ingredient 10 g/a, 28th day from the treatment
Echinochloa oryzicola = system: Echinochloa oryzicola
Description: (§1) The herbicidal effect was evaluated in terms of herbicidal rate obtained from the following equation: Herbicidal rate (%)=[1−(Weight of weeds above the ground in a treated plot)/(Weight of weeds above the ground in a non-treated plot)]×100
(§2) and was expressed by herbicidal index according to the following criteria.
(§3) Alluvial soil from a paddy field was put in a resin-made vat having an area of 200 cm^2. After fertilization, seeds of Echinochloa oryzicola, Rotala indica and Scirpus juncoides were cast on the soil and uniformly covered with the soil, and water was poured onto the soil to keep a water depth of 3 cm. Then, cultivation was continued in a greenhouse, and when the weeds to be tested reached the cotyledon stage to 1-leaf stage, the wettable powder obtained in Formulation Example 1 was diluted with water and a predetermined amount thereof was added dropwise uniformly to the weeds by means of a pipette to give 10 g of the active ingredient per an are. Thereafter, cultivation was further continued in the greenhouse, and the herbicidal effect was examined on the 28th day from the treatment. The results obtained are shown in Table 9 (the compound numbers in Table 9 correspond to those in Tables 1 to 6).

Rotala indica = system: Rotala indica
Description: as §1, §2, §3

Scirpus juncoides = system: Scirpus juncoides
Description: as §1, §2, §3

CC(=O)OC1COCC1Oc1nc(-c2cccc(C(F)(F)F)c2)c2cc(C)sc2n1 (mixture of isomers) [6-188]
Herbicidal effect Echinochloa oryzicola (herbicidal index) (Echinochloa oryzicola): 5 (91 to 100)
Herbicidal effect Rotala indica (herbicidal index) (Rotala indica): 5 (91 to 100)
Herbicidal effect Scirpus juncoides (herbicidal index) (Scirpus juncoides): 4 (71 to 90)

Cc1cc2c(-c3cccc(OC(F)(F)F)c3)nc(Cl)nc2s1 [5-9]
Herbicidal effect Echinochloa oryzicola (herbicidal index) (Echinochloa oryzicola): 5 (91 to 100)
Herbicidal effect Rotala indica (herbicidal index) (Rotala indica): 5 (91 to 100)
Herbicidal effect Scirpus juncoides (herbicidal index) (Scirpus juncoides): 4 (71 to 90)

CCCOc1nc(-c2cccc(C(F)(F)F)c2)c2cc(CC)sc2n1 [6-8]
Herbicidal effect Echinochloa oryzicola (herbicidal index) (Echinochloa oryzicola): 5 (91 to 100)
Herbicidal effect Rotala indica (herbicidal index) (Rotala indica): 4 (71 to 90)
Herbicidal effect Scirpus juncoides (herbicidal index) (Scirpus juncoides): 4 (71 to 90)

CCOc1nc(-c2cccc(C(F)(F)F)c2)c2cc(C)sc2n1 [6-24]
Herbicidal effect Echinochloa oryzicola (herbicidal index) (Echinochloa oryzicola): 5 (91 to 100)
Herbicidal effect Rotala indica (herbicidal index) (Rotala indica): 5 (91 to 100)
Herbicidal effect Scirpus juncoides (herbicidal index) (Scirpus juncoides): 4 (71 to 90)

CCOc1nc(-c2cccc(OC(F)(F)F)c2)c2cc(C)sc2n1 [6-34]
Herbicidal effect Echinochloa oryzicola (herbicidal index) (Echinochloa oryzicola): 5 (91 to 100)
Herbicidal effect Rotala indica (herbicidal index) (Rotala indica): 5 (91 to 100)
Herbicidal effect Scirpus juncoides (herbicidal index) (Scirpus juncoides): 5 (91 to 100)

Cc1cc2c(-c3cccc(OC(F)F)c3)nc(OC(C)C)nc2s1 [6-41]
Herbicidal effect Echinochloa oryzicola (herbicidal index) (Echinochloa oryzicola): 5 (91 to 100)
Herbicidal effect Rotala indica (herbicidal index) (Rotala indica): 5 (91 to 100)
Herbicidal effect Scirpus juncoides (herbicidal index) (Scirpus juncoides): 4 (71 to 90)

CCCCCOc1nc(-c2ccccc2C)c2cc(C)sc2n1 [6-47]
Herbicidal effect Echinochloa oryzicola (herbicidal index) (Echinochloa oryzicola): 4 (71 to 90)
Herbicidal effect Rotala indica (herbicidal index) (Rotala indica): 3 (51 to 70)
Herbicidal effect Scirpus juncoides (herbicidal index) (Scirpus juncoides): 1 (6 to 30)

CCOc1nc(-c2sccc2C)c2cc(C)sc2n1 [6-50]
Herbicidal effect Echinochloa oryzicola (herbicidal index) (Echinochloa oryzicola): 3 (51 to 70)
Herbicidal effect Rotala indica (herbicidal index) (Rotala indica): 4 (71 to 90)
Herbicidal effect Scirpus juncoides (herbicidal index) (Scirpus juncoides): 3 (51 to 70)

CCCOc1nc(-c2cccc(Cl)c2)c2cc(C)sc2n1 [6-52]
Herbicidal effect Echinochloa oryzicola (herbicidal index) (Echinochloa oryzicola): 5 (91 to 100)
Herbicidal effect Rotala indica (herbicidal index) (Rotala indica): 5 (91 to 100)
Herbicidal effect Scirpus juncoides (herbicidal index) (Scirpus juncoides): 3 (51 to 70)

Cc1cc2c(-c3cccc(Cl)c3)nc(OC3CCCC3)nc2s1 [6-54]
Herbicidal effect Echinochloa oryzicola (herbicidal index) (Echinochloa oryzicola): 5 (91 to 100)
Herbicidal effect Rotala indica (herbicidal index) (Rotala indica): 5 (91 to 100)
Herbicidal effect Scirpus juncoides (herbicidal index) (Scirpus juncoides): 4 (71 to 90)

CCCOc1nc(-c2ccccc2Cl)c2cc(C)sc2n1 [6-56]
Herbicidal effect Echinochloa oryzicola (herbicidal index) (Echinochloa oryzicola): 5 (91 to 100)
Herbicidal effect Rotala indica (herbicidal index) (Rotala indica): 5 (91 to 100)
Herbicidal effect Scirpus juncoides (herbicidal index) (Scirpus juncoides): 4 (71 to 90)

Cc1cc2c(-c3cccc(Br)c3)nc(OCC(C)(C)C)nc2s1 [6-60]
Herbicidal effect Echinochloa oryzicola (herbicidal index) (Echinochloa oryzicola): 5 (91 to 100)
Herbicidal effect Rotala indica (herbicidal index) (Rotala indica): 5 (91 to 100)
Herbicidal effect Scirpus juncoides (herbicidal index) (Scirpus juncoides): 5 (91 to 100)

CCCOc1nc(-c2cccc(OC)c2)c2cc(C)sc2n1 [6-62]
Herbicidal effect Echinochloa oryzicola (herbicidal index) (Echinochloa oryzicola): 5 (91 to 100)
Herbicidal effect Rotala indica (herbicidal index) (Rotala indica): 5 (91 to 100)
Herbicidal effect Scirpus juncoides (herbicidal index) (Scirpus juncoides): 5 (91 to 100)

Cc1cc2c(-c3cccc(C(F)(F)F)c3)nc(OC(C)C(C)C)nc2s1 (stereo not drawn) [6-72]
Herbicidal effect Echinochloa oryzicola (herbicidal index) (Echinochloa oryzicola): 5 (91 to 100)
Herbicidal effect Rotala indica (herbicidal index) (Rotala indica): 5 (91 to 100)
Herbicidal effect Scirpus juncoides (herbicidal index) (Scirpus juncoides): 3 (51 to 70)

Cc1cc2c(-c3cccc(SC(F)(F)F)c3)nc(OC3CCCC3)nc2s1 [6-86]
Herbicidal effect Echinochloa oryzicola (herbicidal index) (Echinochloa oryzicola): 5 (91 to 100)
Herbicidal effect Rotala indica (herbicidal index) (Rotala indica): 5 (91 to 100)
Herbicidal effect Scirpus juncoides (herbicidal index) (Scirpus juncoides): 4 (71 to 90)

Cc1cc2c(-c3cccc(SC(F)(F)F)c3)nc(OCC(F)F)nc2s1 [6-116]
Herbicidal effect Echinochloa oryzicola (herbicidal index) (Echinochloa oryzicola): 5 (91 to 100)
Herbicidal effect Rotala indica (herbicidal index) (Rotala indica): 5 (91 to 100)
Herbicidal effect Scirpus juncoides (herbicidal index) (Scirpus juncoides): 4 (71 to 90)

Cc1cc2c(-c3cccc(SC(F)F)c3)nc(OCC(F)(F)F)nc2s1 [6-127]
Herbicidal effect Echinochloa oryzicola (herbicidal index) (Echinochloa oryzicola): 5 (91 to 100)
Herbicidal effect Rotala indica (herbicidal index) (Rotala indica): 5 (91 to 100)
Herbicidal effect Scirpus juncoides (herbicidal index) (Scirpus juncoides): 4 (71 to 90)

Cc1cc2c(-c3cccc(C(F)(F)F)c3)nc(Oc3ccccc3)nc2s1 [6-146]
Herbicidal effect Echinochloa oryzicola (herbicidal index) (Echinochloa oryzicola): 4 (71 to 90)
Herbicidal effect Rotala indica (herbicidal index) (Rotala indica): 5 (91 to 100)
Herbicidal effect Scirpus juncoides (herbicidal index) (Scirpus juncoides): 2 (31 to 50)

Cc1cc2c(-c3cccc(C(F)(F)F)c3)nc(OS(=O)(=O)CCl)nc2s1 [6-149]
Herbicidal effect Echinochloa oryzicola (herbicidal index) (Echinochloa oryzicola): 5 (91 to 100)
Herbicidal effect Rotala indica (herbicidal index) (Rotala indica): 5 (91 to 100)
Herbicidal effect Scirpus juncoides (herbicidal index) (Scirpus juncoides): 4 (71 to 90)

Cc1cc2c(-c3cccc(C(F)(F)F)c3)nc(OS(=O)(=O)CCCCl)nc2s1 [6-157]
Herbicidal effect Echinochloa oryzicola (herbicidal index) (Echinochloa oryzicola): 5 (91 to 100)
Herbicidal effect Rotala indica (herbicidal index) (Rotala indica): 5 (91 to 100)
Herbicidal effect Scirpus juncoides (herbicidal index) (Scirpus juncoides): 4 (71 to 90)

Cc1cc2c(-c3cccc(C(F)(F)F)c3)nc(OS(=O)(=O)N(C)C)nc2s1 [6-160]
Herbicidal effect Echinochloa oryzicola (herbicidal index) (Echinochloa oryzicola): 5 (91 to 100)
Herbicidal effect Rotala indica (herbicidal index) (Rotala indica): 5 (91 to 100)
Herbicidal effect Scirpus juncoides (herbicidal index) (Scirpus juncoides): 4 (71 to 90)

Cc1cc2c(-c3cccc(SC(F)(F)F)c3)nc(OS(C)(=O)=O)nc2s1 [6-164]
Herbicidal effect Echinochloa oryzicola (herbicidal index) (Echinochloa oryzicola): 5 (91 to 100)
Herbicidal effect Rotala indica (herbicidal index) (Rotala indica): 5 (91 to 100)
Herbicidal effect Scirpus juncoides (herbicidal index) (Scirpus juncoides): 4 (71 to 90)

Cc1cc2c(-c3cccc(C(F)(F)F)c3)nc(N(C)C)nc2s1 [6-169]
Herbicidal effect Echinochloa oryzicola (herbicidal index) (Echinochloa oryzicola): 5 (91 to 100)
Herbicidal effect Rotala indica (herbicidal index) (Rotala indica): 5 (91 to 100)
Herbicidal effect Scirpus juncoides (herbicidal index) (Scirpus juncoides): 2 (31 to 50)

Cc1cc2c(-c3cccc(C(F)(F)F)c3)nc(S(C)(=O)=O)nc2s1 [6-174]
Herbicidal effect Echinochloa oryzicola (herbicidal index) (Echinochloa oryzicola): 1 (6 to 30)
Herbicidal effect Rotala indica (herbicidal index) (Rotala indica): 5 (91 to 100)
Herbicidal effect Scirpus juncoides (herbicidal index) (Scirpus juncoides): 3 (51 to 70)

Cc1cc2c(-c3ccccc3C(F)(F)F)nc(-n3ccnc3)nc2s1 [6-191]
Herbicidal effect Echinochloa oryzicola (herbicidal index) (Echinochloa oryzicola): 5 (91 to 100)
Herbicidal effect Rotala indica (herbicidal index) (Rotala indica): 5 (91 to 100)
Herbicidal effect Scirpus juncoides (herbicidal index) (Scirpus juncoides): 3 (51 to 70)

Cc1cc2c(-n3ccc(C(F)(F)F)n3)nc(-n3ccc(C(F)(F)F)n3)nc2s1 [6-200]
Herbicidal effect Echinochloa oryzicola (herbicidal index) (Echinochloa oryzicola): 3 (51 to 70)
Herbicidal effect Rotala indica (herbicidal index) (Rotala indica): 5 (91 to 100)
Herbicidal effect Scirpus juncoides (herbicidal index) (Scirpus juncoides): 3 (51 to 70)

Cc1cc2c(Oc3cccc(C(F)(F)F)c3)nc(-n3ccc(C(F)(F)F)n3)nc2s1 [6-201]
Herbicidal effect Echinochloa oryzicola (herbicidal index) (Echinochloa oryzicola): 5 (91 to 100)
Herbicidal effect Rotala indica (herbicidal index) (Rotala indica): 5 (91 to 100)
Herbicidal effect Scirpus juncoides (herbicidal index) (Scirpus juncoides): 3 (51 to 70)

Cc1cc2c(-c3ccccc3C(F)(F)F)nc(Cl)nc2s1 [Compound No. 5-3]
Herbicidal effect Echinochloa oryzicola (herbicidal index) (Echinochloa oryzicola): 5 (91 to 100)
Herbicidal effect Rotala indica (herbicidal index) (Rotala indica): 5 (91 to 100)
Herbicidal effect Scirpus juncoides (herbicidal index) (Scirpus juncoides): 3 (51 to 70)
